Laboratory results published in patent US20150105252A1, “SUBSTITUTED PYRAZOLES AS HERBICIDES” (E I DU PONT DE NEMOURS AND COMPANY, priority 2013, published 2015).

Key:
[1] = tested on: wheat; test: Test A postemergence; type: in vivo, Triticum aestivum
In short: (§1)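 Visual injury rating, 0–100 (0 no effect, 100 complete control), vs untreated controls ~10 days after treatment in greenhouse. Pre: directed soil spray on seeded loam/sand. Post: 2–10 cm plants, 1–2 leaf stage. Formulation: non-phytotoxic solvent mix + surfactant.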

[2] = tested on: barnyardgrass; test: Test A preemergence; type: in vivo, Echinochloa crus-galli
In short: as §1

[3] = tested on: velvetleaf; test: Test A postemergence; type: in vivo, Abutilon theophrasti
In short: as §1

[4] = tested on: barnyardgrass; test: Test A postemergence; type: in vivo, Echinochloa crus-galli; settings: Postemergence
In short: as §1

[5] = tested on: morningglory; test: Test A preemergence; type: in vivo, Ipomoea spp.
In short: as §1

[6] = tested on: velvetleaf; test: Test A preemergence; type: in vivo, Abutilon theophrasti
In short: as §1

[7] = tested on: barnyardgrass; test: Test B flood; type: in vivo, Echinochloa crus-galli; settings: 250 g ai/ha, visual rating on 0 to 100 scale (0 no effect, 100 complete control), 13 to 15 days
Protocol: (§2) Seeds selected from rice (Oryza sativa), sedge, umbrella (small-flower umbrella sedge Cyperus difformis), ducksalad (Heteranthera limosa), and barnyardgrass (Echinochloa crus-galli) were grown to the 2-leaf stage for testing. At time of treatment, test pots were flooded to 3 cm above the soil surface, treated by application of test compounds directly to the paddy water, and then maintained at that water depth for the duration of the test.
(§3) Treated plants and controls were maintained in a greenhouse for 13 to 15 days, after which time all species were compared to controls and visually evaluated. Plant response ratings, summarized in Table B, are based on a scale of 0 to 100 where 0 is no effect and 100 is complete control. A dash (-) response means no test result.

[8] = tested on: sedge, umbrella; test: Test B flood; type: in vivo, Cyperus difformis; settings: 250 g ai/ha, visual rating on 0 to 100 scale (0 no effect, 100 complete control), 13 to 15 days
In short: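 Flooded-pot test: compound dosed into 3 cm of standing water above soil when plants had two leaves. Visual control ratings (0–100) versus untreated plants after 13–15 d.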

[9] = tested on: ducksalad; test: Test B flood; type: in vivo, Heteranthera limosa; settings: 250 g ai/ha, visual rating on 0 to 100 scale (0 no effect, 100 complete control), 13 to 15 days
Protocol: as §2, §3

[10] = tested on: crabgrass, large; test: Test A postemergence; type: in vivo, Digitaria sanguinalis
In short: as §1

[11] = tested on: wheat; test: Test A preemergence; type: in vivo, Triticum aestivum; settings: preemergence
In short: as §1

[12] = tested on: corn; test: Test A postemergence; type: in vivo, Zea mays
In short: as §1

[13] = tested on: crabgrass, large; test: Test A preemergence; type: in vivo, Digitaria sanguinalis
In short: as §1

[14] = tested on: foxtail, giant; test: Test A preemergence; type: in vivo, Setaria faberii
In short: as §1

[15] = tested on: corn; test: Test A preemergence; type: in vivo, Zea mays
In short: as §1

[16] = tested on: pigweed; test: Test A postemergence; type: in vivo, Amaranthus retroflexus
In short: as §1

[17] = tested on: morningglory; test: Test A postemergence; type: in vivo, Ipomoea spp.
In short: as §1

[18] = tested on: foxtail, giant; test: Test A postemergence; type: in vivo, Setaria faberii
In short: as §1

[19] = tested on: pigweed; test: Test A preemergence; type: in vivo, Amaranthus retroflexus
In short: as §1

[20] = tested on: rice; test: Test B flood; type: in vivo, Oryza sativa; settings: 250 g ai/ha, visual rating on 0 to 100 scale (0 no effect, 100 complete control), 13 to 15 days
Protocol: as §2, §3

[21] = Postemergence, 500 g ai/ha, visual rating after approx. 10 days, 0 to 100 scale (0 no effect, 100 complete control)
[22] = postemergence, 125 g ai/ha, about 10 days, visual rating on 0 to 100 scale (0 no effect, 100 complete control)
[23] = Preemergence, 500 g ai/ha, 0 to 100 scale, 0 no effect, 100 complete control
[24] = preemergence, 125 g ai/ha, visual injury, 0 to 100 scale, approx. 10 days
[25] = 125 g ai/ha, 0 to 100 scale, 0 no effect, 100 complete control
[26] = 500 g ai/ha, visual rating after approx. 10 days, 0 to 100 scale (0 no effect, 100 complete control)
[27] = 125 g ai/ha, visual injury, 0 to 100 scale, approx. 10 days
[28] = 500 g ai/ha, visual injury after approx. 10 days, 0 to 100 scale (0 no effect, 100 complete control)
[29] = preemergence, 500 g ai/ha, visual injury after approx. 10 days, 0 to 100 scale (0 no effect, 100 complete control)

SMILES	Wheat plant response rating [1, 21]	Wheat plant response rating [1, 22]	Barnyardgrass plant response rating [2, 24]	Velvetleaf plant response rating [3, 21]	Velvetleaf plant response rating [3, 22]	Barnyardgrass plant response rating [4, 25]	Barnyardgrass plant response rating [4, 26]	Morningglory plant response rating [5, 24]	Velvetleaf plant response rating [6, 24]	Plant response rating, Barnyardgrass [7]	Plant response rating, Sedge, Umbrella [8]	Plant response rating, Ducksalad [9]	Crabgrass, Large plant response rating [10, 21]	Crabgrass, Large plant response rating [10, 22]	Wheat plant response rating [11, 27]	Wheat plant response rating [11, 28]	Corn plant response rating [12, 21]	Corn plant response rating [12, 22]	Crabgrass, Large plant response rating [13, 24]	Foxtail, Giant plant response rating [14, 24]	other results
CCc1cc(C(=O)NCC(F)(F)F)nn1Oc1ccnc(C(F)(F)F)c1 [Compound 84]	40	0	10	30	20	10	30	0	0	0	60	20	50	20	0	50	40	10	90	40	Barnyardgrass plant response rating [2, 23]: 70; Morningglory plant response rating [5, 23]: 30; Velvetleaf plant response rating [6, 23]: 50; Crabgrass, Large plant response rating [13, 23]: 100; Foxtail, Giant plant response rating [14, 23]: 80; Corn plant response rating [15, 23]: 40; Corn plant response rating [15, 24]: 10; Pigweed plant response rating [16, 21]: 20; Pigweed plant response rating [16, 22]: 10; Morningglory plant response rating [17, 21]: 70; Morningglory plant response rating [17, 22]: 20; Foxtail, Giant plant response rating [18, 21]: 50; Foxtail, Giant plant response rating [18, 22]: 10; Pigweed plant response rating [19, 23]: 100; Pigweed plant response rating [19, 24]: 50; Plant response rating, Rice [20]: 0
CCCCNC(=O)c1cc(CC)n(Oc2ccnc(C(F)(F)F)c2)n1 [Compound 86]	10	0	0	40	30	0	20	0	0	0	40	0	50	10	0	0	30	10	50	0	Barnyardgrass plant response rating [2, 29]: 50; Morningglory plant response rating [5, 29]: 20; Velvetleaf plant response rating [6, 29]: 0; Crabgrass, Large plant response rating [13, 29]: 80; Foxtail, Giant plant response rating [14, 29]: 80; Corn plant response rating [15, 24]: 0; Corn plant response rating [15, 29]: 20; Pigweed plant response rating [16, 21]: 0; Pigweed plant response rating [16, 22]: 0; Morningglory plant response rating [17, 21]: 60; Morningglory plant response rating [17, 22]: 10; Foxtail, Giant plant response rating [18, 21]: 40; Foxtail, Giant plant response rating [18, 22]: 10; Pigweed plant response rating [19, 24]: 0; Pigweed plant response rating [19, 29]: 0; Plant response rating, Rice [20]: 0
CCc1cc(C(=O)NCC(F)(F)F)nn1Oc1cccc(C(F)(F)F)n1 [Compound 87]	0	0	0	10	0	0	0	0	0	0	0	0	10	0	0	0	0	0	0	0	Barnyardgrass plant response rating [2, 29]: 0; Morningglory plant response rating [5, 29]: 10; Velvetleaf plant response rating [6, 29]: 0; Crabgrass, Large plant response rating [13, 29]: 80; Foxtail, Giant plant response rating [14, 29]: 0; Corn plant response rating [15, 24]: 0; Corn plant response rating [15, 29]: 0; Pigweed plant response rating [16, 21]: 10; Pigweed plant response rating [16, 22]: 0; Morningglory plant response rating [17, 21]: 20; Morningglory plant response rating [17, 22]: 10; Foxtail, Giant plant response rating [18, 21]: 0; Foxtail, Giant plant response rating [18, 22]: 0; Pigweed plant response rating [19, 24]: 0; Pigweed plant response rating [19, 29]: 40; Plant response rating, Rice [20]: 0
CCCc1cc(C(=O)NCC(F)(F)F)nn1Oc1ccnc(C(F)(F)F)c1 [Compound 92]	20	0	0	20	0	0	40	0	0	0	50	50	30	0	0	20	40	0	20	20	Barnyardgrass plant response rating [2, 29]: 90; Morningglory plant response rating [5, 29]: 20; Velvetleaf plant response rating [6, 29]: 0; Crabgrass, Large plant response rating [13, 29]: 100; Foxtail, Giant plant response rating [14, 29]: 100; Corn plant response rating [15, 24]: 0; Corn plant response rating [15, 29]: 40; Pigweed plant response rating [16, 21]: 40; Pigweed plant response rating [16, 22]: 0; Morningglory plant response rating [17, 21]: 40; Morningglory plant response rating [17, 22]: 0; Foxtail, Giant plant response rating [18, 21]: 50; Foxtail, Giant plant response rating [18, 22]: 0; Pigweed plant response rating [19, 24]: 40; Pigweed plant response rating [19, 29]: 100; Plant response rating, Rice [20]: 0
CCCc1cc(C(=O)NC2CC2)nn1Oc1ccnc(C(F)(F)F)c1 [Compound 93]	40	20	0	20	0	0	40	0	0	0	50	50	80	20	0	30	90	0	70	30	Barnyardgrass plant response rating [2, 29]: 90; Morningglory plant response rating [5, 29]: 50; Velvetleaf plant response rating [6, 29]: 0; Crabgrass, Large plant response rating [13, 29]: 100; Foxtail, Giant plant response rating [14, 29]: 100; Corn plant response rating [15, 24]: 0; Corn plant response rating [15, 29]: 80; Pigweed plant response rating [16, 21]: 60; Pigweed plant response rating [16, 22]: 20; Morningglory plant response rating [17, 21]: 60; Morningglory plant response rating [17, 22]: 0; Foxtail, Giant plant response rating [18, 21]: 80; Foxtail, Giant plant response rating [18, 22]: 20; Pigweed plant response rating [19, 24]: 30; Pigweed plant response rating [19, 29]: 100; Plant response rating, Rice [20]: 0
